In US12498323B2, “Use of fluorescent imaging plate reader (FLIPR) high-throughput real-time fluorescence detection and analysis system in detection of calcium signals in plants” (Guizhou Normal University, priority 2022, dated 2025):

Experiments:
Type in all cases: cell-based
[1] = system: protoplasts of the Primula rupestris leaves; assay: FLIPR calcium signal detection in protoplasts of Primula rupestris leaves
Description: (§1) (1) The protoplasts prepared in Example 1 were taken out, and mixed with the calcium dye according to a ratio of protoplast: calcium dye=1:1, and a group added with only a calcium dye and without protoplasts was taken as a control group, and added to a 96-well plate of a cell plate, as shown in Table 1:
(2) A buffer (helps buffer) was used to prepare a 96-well plate of the cell plate with different concentrations of CaCl2 solutions: CaCl2 (0, 10, 20, 40, 60, 80, 100, 150, 200, 300, and 500 mM). A group without adding protoplasts was taken as a control group.
(3) The cell plate was wrapped with a plastic wrap, and incubated at 37° C. for 1 h. After the incubation, the two plates were balanced, centrifuged at 600 rpm at 4° C. for 1-2 min, and loaded on the machine.
(4) The above experiment was repeated for 10 times to observe whether the results were consistent. The order of concentrations from top to bottom in the legend on the right in FIG. 3 and the order of concentrations from left to right in Table 2 can be in one-to-one correspondence.
The buffer was used to prepare a 96-well plate of the cell plate with different concentrations of CaCl2 solutions: CaCl2 (0, 100, 200, 220, 240, 260, 280, 300, 350, 400, and 450 mM). The cell plate was wrapped with a plastic wrap, and incubated at 37° C. for 1 h. After the incubation, the two plates were balanced, centrifuged at 600 rpm at 4° C. for 1-2 min, and loaded on the machine. The order of concentrations from top to bottom in the legend on the right in FIG. 5 and the order of concentrations from left to right in Table 3 can be in one-to-one correspondence:
Using step (1) in Example 2, a buffer was used to prepare a 96-well plate of a cell plate with different concentrations of EGTA solutions: EGTA solution (0, 0.1, 0.5, 1.0, 5, 10, 25, 50, 100, 150, and 200 mM).
The cell plate was wrapped with a plastic wrap, and incubated at 37° C. for 1 h. After the incubation, the two plates were balanced, centrifuged at 600 rpm at 4° C. for 1-2 min, and loaded on the machine.
The above experiment was repeated for 10 times to observe whether the results were consistent. The order of concentrations from top to bottom in the legend on the right in FIG. 7 and the order of concentrations from left to right in Table 4 can be in one-to-one correspondence.
as §1, with “dye=1:1 till a total of 150 μL,” for “dye=1:1,”, “plate.” for “plate, as shown in Table 1:”
(2) 220 mM of CaCl2 solution and 100 μM of EGTA solution were added to the 96-well plate of the cell plate in step (1).
(4) The above experiment was repeated for 10 times to observe whether the results were consistent.
The difference was that the EGTA solution and the CaCl2 solution in step (3) had different concentrations, and the corresponding parameters are shown in Table 5: […]

[2] = system: protoplasts of the Primula rupestris petals; assay: FLIPR calcium signal detection in protoplasts of Primula rupestris petals
Description: According to the method in Example 4, the EGTA solution and the CaCl2 solution were combined to treat the change of the protoplasts of the Primula rupestris petals, and the parameters of the examples and comparative examples are shown in Table 7:

[3] = system: protoplasts of the Primula rupestris sepals; assay: FLIPR calcium signal detection in protoplasts of Primula rupestris sepals
Text: According to the method in Example 4, the EGTA solution and the CaCl2 solution were combined to treat the change of the protoplasts of the Primula rupestris sepals, and the parameters of the examples and comparative examples are shown in Table 6: […]

[4] = system: protoplasts of the valerian leaves; assay: FLIPR calcium signal detection in protoplasts of valerian leaves
[5] = method of Example 2, FIG. 18-19
[6] = method of Example 2, FIG. 25-26

Question: `O=C(O)CN(CCOCCOCCN(CC(=O)O)CC(=O)O)CC(=O)O` [EGTA, ethylene glycol tetraacetic acid] was tested. Which “effect of composite reaction of EGTA solution and CaCl2 solution on calcium signal fluorescence” value (shortened to “effect … on calcium signal fluorescence”) ([1]; EGTA plus CaCl2 1:1, Table 5 settings, FIG. 8-9) did it give?
Answer: Its value is “can chelate the change of the fluorescence caused by the exogenous calcium signal”.

Question: What about the “EGTA solution concentration with relatively excellent chelation effect on the calcium signal” value ([1]; EGTA series 0-200, 37° C. 1 h, FIG. 6-7) of the same compound?
Answer: Its value is 5 to 200 µM.

Question: What about the “effect … on calcium signal fluorescence” value ([2]; EGTA plus CaCl2, Table 7 settings, FIG. 22-23) of the same compound?
Answer: The value was “can chelate the change of the fluorescence caused by the exogenous calcium signal”.

Question: And the “confirmed concentration of the calcium signal chelator EGTA solution” value ([2]; method of Example 3, FIG. 20-21)?
Answer: The value was 5 to 200 µM.

Question: What about the “effect … on calcium signal fluorescence” value ([3]; EGTA plus CaCl2, Table 6 settings, FIG. 15-16) of the same compound?
Answer: The value was “can chelate the change of the fluorescence caused by the exogenous calcium signal”.

Question: And the “confirmed concentration of the calcium signal chelator EGTA solution” value ([3]; method of Example 3, FIG. 13-14)?
Answer: Its value is 5 to 200 µM.

Question: And the “effect … on calcium signal fluorescence” value ([4]; EGTA plus CaCl2, Table 8 settings, FIG. 29-30)?
Answer: Its value is “can chelate the change of the fluorescence caused by the exogenous calcium signal”.

Question: And the “confirmed concentration of the calcium signal chelator EGTA solution” value ([4]; method of Example 3, FIG. 27-28)?
Answer: Its value is 0.1 to 200 µM.

Question: With `[Ca+2].[Cl-].[Cl-]` [CaCl2] as the compound, how does the “concentration of the CaCl2 solution at which the calcium signal surges significantly” value ([1]; first series 0-500 mM CaCl2, 37° C. 1 h, FIG. 2-3) read?
Answer: Its value is 300 mM.

Question: What about the “concentration of the CaCl2 solution at which the calcium signal surges significantly” value ([1]; refined series 0-450 mM CaCl2, 37° C. 1 h, FIG. 4-5) of the same compound?
Answer: The value was 220 mM.

Question: What about the “confirmed concentration of the CaCl2 solution (exogenous calcium signal stimulation)” value ([1]; refined series, FIG. 4-5) of the same compound?
Answer: Its value is 220 to 450 mM.

Question: And the “CaCl2 concentration range in which the calcium signal changes significantly” value [2, 5]?
Answer: Its value is 350 to 450 mM.

Question: And the “concentration of the CaCl2 solution at which the calcium signal surges significantly” value [2, 5]?
Answer: The value was 350 mM.

Question: What about the “CaCl2 concentration at which the calcium signal changes significantly” value ([3]; method of Example 2, FIG. 11-12) of the same compound?
Answer: The value was 350 mM.

Question: And the “CaCl2 concentration range in which the calcium signal changes significantly” value [4, 6]?
Answer: Its value is 220 to 450 mM.

Question: What about the “concentration of the CaCl2 solution at which the calcium signal surges significantly” value [4, 6] of the same compound?
Answer: Its value is 220 mM.
